Source: patent publication US20250073202A1, “METHODS TO TREAT RENAL DISORDERS USING CALCIUM CHANNEL INHIBITORS” (The Trustees of Indiana University, priority 2018, published 2025)
Marks after values point to notes of the source that are not given here.

Legend:
[1] = system: glycerol-induced kidney injury; experiment: Glycerol-induced kidney injury (rhabdomyolysis model of AKI) in rats, 24 hours following injection; format: in vivo, rat
Source text: Rats were allowed to recover for various periods of time as described in the Results. In Study I, lymphocytes were studied in vitro after recovery for either 2 or 7 days following I/R or sham surgery for evaluation of function in vitro or for FACS analysis. In Study II, the effect of SOCE on kidney injury was studied with the inhibitor YM58483/BPT2 (N-[4-[3,5-Bis(trifluoromethyl)-1H-pyrazol-1-yl]phenyl]-4-methyl-1,2,3-thiadiazole-5-carboxamide; Tocris/Bio-Techne Minneapolis, MN). Rats were pretreated p.o. 2-3 hours prior to surgery with YM58483.BPT2 (1 mg·kg^−1) in sugar-free chocolate pudding following dilution in 100% EtOH, at, a dose previously shown to affect T cell activation in rats. In some experiments, rats were also treated with the IL17Rc (150 ng/day i.p; R&D Systems). In addition, one experiment utilized a model of rhabdomyolysis, induced by injection of 50% glycerol (10 ml/kg) into the hindlimb muscle of rats following 16 hours of water restriction.
(§1) To measure creatinine, tail blood was collected in heparin containing tubes and centrifuged to collect plasma. Plasma creatinine was measured using a Pointe Scientific Analyzer and Creatinine Assay reagents using methods outlined by the manufacturer (Pointe Scientific, Canton MI). Urine was collected for 24 hours by placing rats in metabolic cages and urine volume was determined gravimetrically. Urine creatinine was measured using a colorimetric assay adopted for microplate readers. Creatinine clearance was measured using UCr*V/PCr.
(§2) Freshly harvested kidneys were minced and digested in liberase (2 μg/ml. Roche, Indianapolis IN) for 15 min at 37° C. using Gentle MACs (Miltenyli, San Diego, CA). The digested tissue was filtered through a 100-μm mesh and washed with RPMI containing 10% fetal bovine serum (Invitrogen). Mononuclear cells were isolated using Percol (Sigma) density gradient centrifugation.
(§3) To evaluate protein expression of IL17 or Orai1, Orai2 or Orai3, cells were restimulated with PMA and ionomycin for 6 hours in the presence of monensin (Golgistop, 1 μg·ml, BD Biosciences) permeabilized with saponin ([…]) and stained with relevant antibody. Cells were scanned using flow cytometry (FACSCalibur, BD Biosciences, San Jose, CA) and scans were analyzed using Flowjo software (Tree Star, Ashland, OR).

[2] = system: progression of CKD induced by high-salt diet following recovery from I/R injury; experiment: AKI-to-CKD progression: unilateral I/R, contralateral nephrectomy and high salt diet in rats (Study III); format: in vivo, rat
Source text: Study III was designed to investigate SOCE on progression of CKD induced by high-salt diet following recovery from I/R injury using a model of AKI-to-CKD described previously. Rats acclimated to a standard diet (AIN 76A, Dyets, Bethlehem, PA) containing 0.4% NaCl were subjected to left unilateral I/R or sham surgery and allowed to recover for ˜5 weeks. Rats were then subjected to right unilateral nephrectomy and subsequently exposed to elevated dietary Na+ (AIN76A plus 4% NaCl) for an additional 4 weeks (FIG. 9). Sham-control rats were not subjected to renal pedicle clamping, but were subjected to unilateral nephrectomy. Simultaneous with exposure to high salt diet, rats were randomly assigned to vehicle or YM58483 treatment (1mg·kg^−1·day^−1; p.o.). At the end of all studies, rats were deeply anesthetized with 50-100 mg/kg pentobarbital (Fatal Plus, Vortech, Dearborn, MI) and kidneys harvested for analysis.
as §1
At the time of tissue harvest, kidneys were bisected and one half was fixed by immersion in 10% formalin, embedded in paraffin and 5 μm sections stained with picrosirus red to assess fibrosis. For quantitative analysis, five random images of renal outer medulla were obtained using Leica DMLB (Scientific Instruments, Columbus, OH) microscope with a 20× objective. The percent area of picrosirus red stain was scored in a blinded fashion using Image J (NIH).
Total RNA was obtained from kidney using Trizol and the Zymogen RNA extraction kit and cDNA was prepared using MMLV enzyme (Invitrogen, Carlsburg, CA). Quantitative real time PCR (qPCR) using gene specific primers was performed using ABI 7500 (Applied Biosystems, Foster City, CA). mRNA values were calculated using 2^−ΔΔCt. Specific primers sequences for IL-6 (catalog #Rn01410330_m1), Kim-1 (#Rn00597703_m1) and IL17 (Rn01757168_m1) were purchased from ThermoFisher (Waltham, MA).
as §2, §3
Study III was designed to investigate SOCE on progression of CKD induced by high-salt diet following recovery from I/R injury using a model of AKI-to-CKD described previously. Rats acclimated to a standard dict (AIN 76A, Dyets, Bethlehem, PA) containing 0.4% NaCl were subjected left unilateral I/R or sham surgery and allowed to recover for ˜5 weeks. Rats were then subjected to right unilateral nephrectomy and subsequently exposed to elevated dietary Na+ (AIN76A plus 4% NaCl) for an additional 4 weeks (FIG. 9). Sham-control rats were not subjected to renal pedicle clamping, but were subjected to unilateral nephrectomy. Simultaneous with exposure to high salt dict, rats were randomly assigned to vehicle or YM58483 treatment (1 mg·kg−1·day−1; p.o.). […]

human blood CD4+ cells = experiment: In vitro stimulation of human blood CD4+ cells from AKI patients with elevated sodium, IL17 response; format: cell-based; details: 170 mM Na+, overnight (~12 hours)
Protocol: For in vitro stimulation of human blood cells, primary T cells were isolated from fresh blood using Straight whole blood CD4 kit from Miltneyli Biotech (Miltenyli, San Diego, CA) according to manufactures' protocol. CD4+T cells were plated at a density of 1×10^6 cells/mL in RPMI medium supplemented with FBS. Cells were stimulated with human anti-CD3/CD28 dynabeads (Gibco; Catalogue no 11161D) along with labeled treatment overnight (˜12 hours). T cells were harvested and incubated with monensin for 6 hours, prior to staining for IL-17 (Table 4).

[3] = 24 hours following glycerol injection, mean ± S.E.
[4] = 1 mg/kg/day p.o. during 4 weeks high salt diet

SMILES: Cc1nnsc1C(=O)Nc1ccc(-n2nc(C(F)(F)F)cc2C(F)(F)F)cc1 [YM58483/BPT2, N-[4-[3,5-Bis(trifluoromethyl)-1H-pyrazol-1-yl]phenyl]-4-methyl-1,2,3-thiadiazole-5-carboxamide]
- CD4+ cells per g [1, 3]: 177606 ± 282 cells per g
- CD4+/IL-17+ cells per g [1, 3]: 20622 ± 4191* cells per g
- CD8+ cells per g [1, 3]: 342433 ± 76011 cells per g
- CD8+/IL-17+ cells per g [1, 3]: 19711 ± 6499* cells per g
- Serum Creatinine [1, 3]: 3.3 ± 0.4* mg/dl
- Total IL-17+ cells per g [1, 3]: 60109 ± 21033* cells per g
- rise in serum creatinine ([1]; glycerol model, 24 hours): significantly attenuated
- total number of IL17+ expressing cells ([1]; glycerol model, 24 hours): significantly attenuated
- Kidney IL6 mRNA expression [2, 4]: significantly attenuated
- expression of Kim-1 [2, 4]: significantly attenuated
- increase in B cells [2, 4]: significantly attenuated
- increase in MΦ/dendritic cells [2, 4]: significantly attenuated
- increase in kidney CD4+ cells [2, 4]: significantly attenuated
- increase in kidney CD8+ cells [2, 4]: significantly attenuated
- increased expression (re-stimulation) of IL17+ cells [2, 4]: significantly attenuated
- urinary albumin excretion [2, 4]: significantly attenuated
- creatinine clearance (reduction relative to sham) ([2]; end of study, 9 weeks post I/R): significantly attenuated
- development of interstitial fibrosis ([2]; picrosirius red, renal outer medulla): significantly attenuated
- IL17 response to elevated extracellular sodium (human blood CD4+ cells): inhibited
